The values below come from patent US20210087159A1, “TETRAHYDROCANNABINOLIC- CA[…] DERIVATIVES AND USES THEREOF” (AL&AM […]., priority 2018, published 2021).

In general, IC50 refers to the concentration at which inhibition is half-maximal. Low values mean greater potency, high ones weaker potency.

The assay has as its system PANC-1 (pancreatic carcinoma). In words: XTT cytotoxicity assay (Pharma Seed). The assay is classed as cell-based. Particulars: Homo sapiens, 48 hours, 20, 10, 5, 1 μM, assay medium 1% FBS. How it is done:
In this study, the cytotoxicity of several compounds of the present invention on lung and pancreatic cancer cell was evaluated.
PANC-1 (pancreatic carcinoma) culture medium: DMEM (High Glucose), supplemented with 10% FBS (heat inactivated), 2 mM L-glutamine, and 1% of Pen/Strep/Amp solution. PANC-1 assay medium: DMEM (High Glucose), supplemented with 1% FBS (heat inactivated), 2 mM L-glutamine, and 1% of Pen/Strep/Amp solution.
Each of the tested compounds was dissolved in DMSO to reach a stock concentration of 20 mM (and stored at −15° C.-−25° C. until use. Compound Ia28 (MW 484 g/mol, 3.05 mg total) was dissolved in 0.315 mL; compound Ia9 (MW 484 g/mol, 2.33 mg total) was dissolved in 0.241 mL; and compound Ia6 (MW 428.3 g/mol, 2.25 mg total) was dissolved in 0.262 mL.
On the day of incubation with the cells, each compound was diluted in DMSO to reach 2 mM, 1 mM, 0.5 mM, 0.1 mM stock concentrations (1:10, 1:20, 1:40 and 1:200), and each of these stocks was further diluted in assay medium 1:100 for final concentration of 20 μM, 10 μM, 5 μM, and 1 μM.
Part 1—cell number calibration. PANC-1 and A549 cells were each plated in a 96 well plate, in their culture medium, at various cell concentrations per well, in triplicates, and were allowed to attach for 24 hours. Thereafter, culture medium was discarded, assay medium was added, and the cells were incubated for additional 72 hours. Finally, assay medium was discarded, and fresh culture medium was added to the cells along with 50 μl XTT reagent. The OD was measured every two hours for 6 hours (three times).
The highest cells number/well were chosen for part 2 as follows: PANC-1 at 7,500 cells per well, A549 at 5000 cells per well.
Part 2—cells incubation with tested compounds. PANC-1 and A549 cells were plated in a 96 well plate, in their culture medium, at the optimal cell concentration according to the results from the previous section and were allowed to attach for 24 hours. Thereafter, the culture medium was discarded, and fresh assay medium was added to the cells, supplemented with elevating compound concentrations. Triton 0.1% was used as positive control for cell death. The cells were incubated for another 48 hours (TBD upon microscopic observation). Finally, fresh culture medium was added to the cells along with 50 μl XTT reagent. The OD was measured at the optimal time point according to the results in the previous section.
`CCCCCc1cc2c(c(O)c1C(=O)NCCNc1ncccn1)[C@@H]1C=C(C)CC[C@H]1C(C)(C)O2` [Ia31, (6aR,0aR)-1-hydroxy-6,6,9-trimethyl-3-pentyl-N-(2-(pyrimidin-2-ylamino)ethyl)-6a,7,8,10a-tetrahydro-6H-benzo[c]chromene-2-carboxamide] yielded a 50% inhibitory concentration (IC50) of 8.5 µM. With `CCCCCc1cc2c(c(O)c1C(=O)NCCN1CCCC1)[C@@H]1C=C(C)CC[C@H]1C(C)(C)O2` [Ia32, (6aR,0aR)-1-hydroxy-6,6,9-trimethyl-3-pentyl-N-(2-(pyrrolidin-1-yl)ethyl)-6a,7,8,10a-tetrahydro-6H-benzo[c]chromene-2-carboxamide] the figure was 3.9 µM; with `CCCCCc1cc2c(c(O)c1C(=O)NCCn1ccnc1)[C@@H]1C=C(C)CC[C@H]1C(C)(C)O2` [Ia33, (6aR,0aR)—N-(2-(1H-imidazol-1-yl)ethyl)-1-hydroxy-6,6,9-trimethyl-3-pentyl-6a,7,8,10a-tetrahydro-6H-benzo[c]chromene-2-carboxamide], 6.7 µM.
